Results reported in EP0637448A1, “Combinations of glycinamide or N-acetylglycinamide with analgesic compounds” (ISCOFAR SAS DI PAOLO E. GHIRARDI, priority 1993, dated 1995).
Read-outs that look alike come from different tables or passages of the source.

Tests used:
EDEMA FROM CARRAGEENIN = experiment: carrageenin edema test; format: in vivo, mouse; details: for ED50: NSAID alone, per os 60 minutes before carrageenin, edema volume after 3 hours, read-out: ED₅₀ ± S.D. (dose reducing edema by 50%)
mouse = experiment: acute oral toxicity (LD50); format: in vivo; details: orally
[1] = test system: phenylquinone induced writhing; experiment: writhing test (phenylquinone-induced abdominal contractions); format: in vivo, mouse; details: for time of maximum effect after administration: ED50 dose given orally, effect as a function of time; for ED50: Mus musculus, read-out: ED₅₀ ± D.5 (anti-writhing action)
Method: In order to experimentally test the above analgesic effect, which involves the µ and K type opiate receptors, the writhing test (literally: "induced abdominal contracture test") with […] of phenylquinone or paraphenylbenzoquinone (0.02% in 5% ethanol), has been choosed. Since phenylquinone is a photosensitive, said solution was kept dark bottle at 37 °C with continuous stirring. Groups of animals were treated orally with different doses of glycinamide at various time intervals before phenylquinone being administered by intraperitoneal way. For each experimental point 3 groups of 10 animals each were tested. After the phenylquinone administration, the animals were placed in glass cylinders and the abdominal contractions were recorded for 20 minutes starting form the fifth minute following the intraperitoneal administration of phenylquinone. As an average, about 50±15 abdominal contractions were recorded during the surveying time. The choice of phenylquinone as the writhing inductor is justified by the greater qualitative constance and higher number of contractions obtainable when compared with other inductors such as acetylcholine, acetic acid, ethacrynic acid, air, etc. [table]

[2] = acute oral toxicity (LD50); format: in vivo; details: in vivo, po; mouse, orally; read-out: LD₅₀
[3] = substance alone, orally, mouse, phenylquinone 2 mg/kg i.p.

Compound CC(=O)Oc1ccccc1C(=O)O [Acetylsalicylic acid] has an ED50 (EDEMA FROM CARRAGEENIN; mouse) of 5.1 ± 0.8 mg/kg.

With NCC(N)=O [Glycinamide] the “enhancement of the effect of sodium diclofenac” value (EDEMA FROM CARRAGEENIN; 50 mg/kg of glycinamide, based on the carrageenin edema test) was “at least 2.8 times”, the anti-edema effect (EDEMA FROM CARRAGEENIN; glycinamide alone, 50 mg/kg orally 50 minutes before carrageenin, mouse) was “does not develop an anti-edema effect” and the LD₅₀ (mouse) was “higher than 2 g/Kg”. For the same compound, the “enhancement of the antiphlogistic and visceral peripheral analgesic effect of sodium diclofenac” value ([1]; 25 mg/kg of glycinamide, based on writhing test) was “at least 2.5 times”, the “time of maximum effect after administration” value ([1]; mouse) was “about 13 minutes” and the ED50 [1, 3] was ~82.9 mg/kg. The “reduction (anti-writhing action, peak)” value ([1]; orally administered dose of 200 mg/kg, mouse) was 81.3%.

CC(C)Cc1ccc(C(C)C(=O)O)cc1 (stereo not drawn) [Ibuprofen] showed an ED50 (EDEMA FROM CARRAGEENIN; mouse) of 20 ± 2.4 mg/kg.

COc1ccc2c(c1)c(CC(=O)O)c(C)n2C(=O)c1ccc(Cl)cc1 [Indomethacin] gave an ED50 (EDEMA FROM CARRAGEENIN; mouse) of 84 ± 12 mg/kg.

In the case of CC(=O)NCC(N)=O [N-acetylglycinamide], the LD50 [2] is reported as > 2000 mg/kg and the “peripheral analgesic activity compared with glycinamide” value ([1]; mouse, in vivo) is reported as “shared both qualitatively and quantitatively”.

For O=C(O)Cc1ccccc1Nc1c(Cl)cccc1Cl [Sodium diclofenac], the ED50 (EDEMA FROM CARRAGEENIN; mouse) was 10 ± 3.6 mg/kg, the “time of maximum effect after administration” value ([1]; mouse) was 45 min and the ED50 ([1]; + Glycinamide HCl 15 mg/kg orally 13 minutes before testing, mouse) was 1.86 ± 1.15 mg/kg. It also gave an ED50 ([1]; + Glycinamide HCl 25 mg/kg orally 13 minutes before testing, mouse) of 1.12 ± 1.2 mg/kg, an ED50 ([1]; + Glycinamide HCl 50 mg/kg orally 13 minutes before testing, mouse) of 1.05 ± 1.31 mg/kg and an ED50 ([1]; + Glycinamide HCl 75 mg/kg orally 13 minutes before testing, mouse) of 1.02 ± 1.26 mg/kg. The ED50 ([1]; + Glycinamide HCl 100 mg/kg orally 13 minutes before testing, mouse) was 1.28 ± 1.16 mg/kg and the ED50 [1, 3] was 2.93 ± 1.43 mg/kg.

With NCC(=O)O [glycine] the “enhancement of the action of peripheral analgesic drugs” value ([1]; test not given) was “does not produce”.
